Assays:
Assay in all cases: relative viability (nuclei count vs DMSO), 5 days (fraction); higher = more cells survive
[1] = compound: CC1=NN=C(O1)C2=NN=C(C=C2)N3CCC(CC3)OC4=C(C=CC(=C4)F)Cl + C[C@@H](Oc1cc(-c2cnn(C3CCNCC3)c2)cnc1N)c1c(Cl)ccc(F)c1Cl [Crizotinib] (partner 1 µM)
Outline: (§1)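 A single step with final 0.05% Triton X-100, 1% formaldehyde and 1 ug/ml Hoechst fixed the cells and stained nuclei 5 days after treatment. Lung cancer cell lines in 1536-well plates had been treated by pin tool the day after seeding with one drug alone or a fixed anchor-drug dose plus five library-drug doses (not always all listed) in √10 steps, and nuclei were counted on 4× images. Relative viability is the ratio of nuclei in treated wells to nuclei in vehicle wells, taken as the median of duplicate plates.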

[2] = compound: CC1=NN=C(O1)C2=NN=C(C=C2)N3CCC(CC3)OC4=C(C=CC(=C4)F)Cl + CC(=O)Nc1cccc(-n2c(=O)n(C3CC3)c(=O)c3c(Nc4ccc(I)cc4F)n(C)c(=O)c(C)c32)c1 [Trametinib] (partner 0.02 µM)
Outline: as §1

Tosedostat + Olaparib = compound: CC(C)C[C@@H](C(=O)N[C@H](C(=O)OC1CCCC1)c1ccccc1)[C@H](O)C(=O)NO [Tosedostat] + O=C(c1cc(Cc2n[nH]c(=O)c3ccccc23)ccc1F)N1CCN(C(=O)C2CC2)CC1 [Olaparib] (partner 8 µM)
Outline: as §1

[3] = compound: CC1=NN=C(O1)C2=NN=C(C=C2)N3CCC(CC3)OC4=C(C=CC(=C4)F)Cl + COc1cccc2cc(-c3nc([C@H]4CC[C@H](C(=O)O)CC4)n4ncnc(N)c34)[nH]c12 [OSI-027] (partner 0.5 µM)
Outline: as §1

Cell Line	relative viability ([1]; first compound 0.253 µM)	relative viability ([1]; first compound 0.8 µM)	relative viability ([1]; first compound 2.53 µM)	relative viability ([1]; first compound 8 µM)	relative viability ([2]; first compound 0.253 µM)	relative viability ([2]; first compound 0.8 µM)	relative viability ([2]; first compound 2.53 µM)	relative viability ([2]; first compound 8 µM)	relative viability (Tosedostat + Olaparib; first compound 0.02 µM)	relative viability (Tosedostat + Olaparib; first compound 0.06325 µM)	relative viability (Tosedostat + Olaparib; first compound 0.2 µM)	relative viability (Tosedostat + Olaparib; first compound 0.6325 µM)	relative viability (Tosedostat + Olaparib; first compound 2 µM)	relative viability ([3]; first compound 0.253 µM)	relative viability ([3]; first compound 0.8 µM)	relative viability ([3]; first compound 2.53 µM)	relative viability ([3]; first compound 8 µM)
LC-2-ad	0.334	0.314	0.336	0.326	0.369	0.35	0.349	0.328	0.774	0.707	0.714	0.638	0.695	0.689	0.678	0.632	0.682
COR-L 105	0.689	0.907	0.786	0.82	0.488	0.424	0.414	0.429	0.771	0.636	0.695	0.507	0.591	0.702	0.687	0.908	0.769
H3255	0.548	0.646	0.538	0.625	0.407	0.491	0.573	0.483	0.596	0.532	0.545	0.525	0.497	0.578	0.581	0.545	0.511
NCI-H2087	0.652	0.598	0.544	0.486	0.167	0.196	0.244	0.175	0.698	0.562	0.558	0.339	0.36	0.641	0.422	0.422	0.3
NCI-H1915	0.445	0.312	0.311	0.253	0.293	0.267	0.277	0.239	0.281	0.234	0.244	0.203	0.236	0.596	0.349	0.553	0.421
HOP-62	0.71	–	0.784	0.575	0.361	0.361	0.361	0.397	0.638	0.346	0.321	0.245	0.363	0.762	0.579	0.771	0.555
LU99A	0.571	0.604	0.655	0.552	0.525	0.59	0.577	0.509	0.278	0.216	0.211	0.171	0.19	0.274	0.298	0.307	0.287
ChaGo-K-1	0.76	0.669	0.721	0.694	0.649	0.555	0.613	0.57	0.459	0.399	0.44	0.377	0.325	0.506	0.422	0.597	0.398
NCI-H3122	0.3	0.303	0.318	0.359	0.173	0.224	0.224	0.232	0.631	0.593	0.574	0.508	0.562	0.359	0.384	0.418	0.348
